Measurements published in patent US9938235B2, “Compounds with neural protective effect, and preparation and use thereof” (GUANGZHOU MAGPIE PHARMACEUTICAL CO., LTD., priority 2014, dated 2018).

Legend:
[1] = test system: MPTP-induced abnormal behavior of mice of Parkinson's disease (PD) model; assay: Behavioral test in MPTP-induced mice of Parkinson's disease (PD) model; type: in vivo, C57BL/6J mice; settings: MT-019 25, 75, 225 mg/kg once a day for seven days; behavioral test on day 7 of administration
Procedure: (§1) Forty of C57BL/6J mice (male, 6 to 7 week-old) were feed for 7 days to adapt to the environment. On the day 8, animal model was started to prepare. 20 mg/kg MPTP was given via intraperitoneal injection for the model group and drug group, the injection was made every 2 hours, for four times in total, and an acute PD model was established. The equivalent amount of saline was given to the normal control group. From the day 2 of model establishment, the compound MT-019 and the positive control drug Rasagiline (1 mg/kg) were given. The doses of MT-019 were 25, 75, 225 mg/kg, respectively. The drug was given once a day, and a equal amount of saline was given to the normal control group and the MPTP model group, for seven days consecutively. On the day 7 of drug administration, behavioral test is performed.

TH neurons in SNpc area = assay: TH neuron immunohistochemistry, SNpc area, MPTP-induced PD mice; type: in vivo, C57BL/6J mice
Procedure: as §1
After the above-mentioned animal model was set up and drug was given to the mice as described in Example 86, materials was taken at 12 hours after the last drug administration in the steps shown below: (1) With 10% chloral hydrate anesthesia in mice, the mice were fixed on an operating table, the chest thereof was quickly open; (2) […], […] the left ventricle, the right auricle was cut open, and a blood buffer was delivered to the heart from an infusion bottle with a volume of about 50 mL per mouse; (3) after the lavage fluid became colorless, the blood buffer was replaced with 4% paraformaldehyde solution in perfusion until the tail and limbs of the mice became stiff, wherein the infusion volume was about 100 mL per mouse; (4) the brain was taken by making the mice beheaded on a flat glass board, and redundant parts were carefully removed. The midbrain was placed and fixed in a centrifuge tube containing freshly prepared 4% paraformaldehydea. The samples were cut into paraffin sections through the process of dehydrating, transparent, paraffining and embedding steps. Each of the samples was cut with paraffin slicing machine into four microns slices. After fully unfold in water bath, the slices were put on glass plates and numbered. […]

SMILES: C#CCNC(C)c1ccc(/C=[N+](\[O-])C(C)(C)C)c(OC(=O)N(C)CC)c1 (stereo not shown) [MT-019]
- recovery effect to MPTP-induced abnormal behavior [1]: had recory effect
- protective effect to dopaminergic neurons compared with positive control Rasagiline (TH neurons in SNpc area; 25 mg/kg MT-019 versus Rasagiline 1 mg/kg): equivalent to that of the positive control drug Rasagiline 1 mg/kg
- protective effect on SNpc area TH neurons (positive cell count in substantia nigra) (TH neurons in SNpc area; MT-019 25, 75, 225 mg/kg once a day for seven days, material taken 12 hours after last administration): had protective effect
- dose dependence of protective effect on TH neurons (TH neurons in SNpc area; doses 25, 75, 225 mg/kg): stronger effect was indicated with higher doses
